Where a SMILES comes first, the peptide text is derived from it. Bridges are numbered along the chain shown (N, C = ends). [ ]: non-standard residue; d: D form. NMeR = CN[C@@H](CCCNC(=N)N)C(=O)O; Pen = CC(C)(S)[C@H](N)C(=O)O
system: Integrin alpha-IIb/beta-3 (Canis familiaris); assay: Inhibition of canine platelet-rich plasma induced by ADP; parameters: concentration or dose not given beside the values; conditions: Canis lupus familiaris, concentration not given here

| inhibition [%] | Compound |
| --- | --- |
| 100 | CC(=O)N[C@@H](Cc1c[nH]cn1)C(=O)N[C@@H](Cc1c[nH]cn1)C(=O)N[C@@H](CC(C)C)C(=O)NCC(=O)NCC(=O)N[C@@H](C)C(=O)N[C@@H](CCCCN)C(=O)N[C@H]1CSSC(C)(C)[C@H](C(N)=O)NC(=O)[C@H](CC(=O)O)NC(=O)CNC(=O)[C@H](CCCN=C(N)N)NC1=O |
| 100 | CC(=O)N[C@@H]1CSSC(C)(C)[C@H](C(N)=O)NC(=O)[C@H](CC(=O)O)NC(=O)CNC(=O)[C@H](CCCN=C(N)N)NC(=O)CNC1=O |
| 98 | CC(=O)N[C@@H](CCCN=C(N)N)C(=O)NCC(=O)N[C@@H](CC(=O)O)C(=O)N[C@@H](Cc1ccc(O)cc1)C(N)=O (Ac-RGDY-NH2) |
| 57 | CC(=O)N[C@@H]1CSSC(C)(C)[C@H](C(N)=O)NC(=O)[C@@H](CC(=O)O)NC(=O)CN(C)C(=O)[C@@H](CCCN=C(N)N)NC1=O |
| 55 | CC(=O)N[C@@H]1CSSC[C@H](C(N)=O)NC(=O)[C@@H](CC(=O)O)NC(=O)CNC(=O)[C@@H](CCCN=C(N)N)NC1=O |
| 100 | CC(=O)N[C@H]1C(=O)N[C@@H](CCCN=C(N)N)C(=O)NCC(=O)N[C@@H](CC(=O)O)C(=O)N[C@H](C(N)=O)CSSC1(C)C |
| 100 | CC(=O)N[C@@H]1CSSC[C@@H](C(N)=O)NC(=O)[C@H](CC(=O)O)NC(=O)CNC(=O)[C@H](CCCN=C(N)N)NC(=O)CNC1=O |
| 100 | CC(=O)N[C@H]1C(=O)N(C)[C@@H](CCCN=C(N)N)C(=O)NCC(=O)N[C@@H](CC(=O)O)C(=O)N[C@@H](C(N)=O)C(C)(C)SSC1(C)C |

molecular target: Integrin alpha-IIb/beta-3 (Homo sapiens, UniProt P05106+P08514); assay: Inhibition of 125[I] Fibrinogen binding to isolated purified human fibrinogen receptor; assay type: protein-complex assay; conditions: not given
Sequence (P05106 27-788 limits assumed): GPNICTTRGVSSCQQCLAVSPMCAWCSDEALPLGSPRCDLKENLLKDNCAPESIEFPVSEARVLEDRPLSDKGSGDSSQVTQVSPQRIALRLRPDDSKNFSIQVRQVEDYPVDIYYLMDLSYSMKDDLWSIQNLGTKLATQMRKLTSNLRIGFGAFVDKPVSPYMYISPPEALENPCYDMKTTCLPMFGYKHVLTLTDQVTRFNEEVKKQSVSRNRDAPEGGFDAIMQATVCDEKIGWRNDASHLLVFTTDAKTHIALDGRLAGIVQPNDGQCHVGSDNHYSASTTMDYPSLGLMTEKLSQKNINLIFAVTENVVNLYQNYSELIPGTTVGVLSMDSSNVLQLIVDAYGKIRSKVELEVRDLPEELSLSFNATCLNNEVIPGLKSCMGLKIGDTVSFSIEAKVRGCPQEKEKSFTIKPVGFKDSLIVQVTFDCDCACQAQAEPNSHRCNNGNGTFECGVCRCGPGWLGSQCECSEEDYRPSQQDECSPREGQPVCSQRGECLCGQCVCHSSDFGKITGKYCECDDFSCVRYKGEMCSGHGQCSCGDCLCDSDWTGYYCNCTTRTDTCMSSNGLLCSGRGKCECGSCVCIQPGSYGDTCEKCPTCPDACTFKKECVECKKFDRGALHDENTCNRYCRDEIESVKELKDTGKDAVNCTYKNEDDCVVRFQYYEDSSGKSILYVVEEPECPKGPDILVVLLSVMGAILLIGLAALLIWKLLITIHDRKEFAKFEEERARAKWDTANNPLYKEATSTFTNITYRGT
Sequence (P08514 32-887 limits assumed): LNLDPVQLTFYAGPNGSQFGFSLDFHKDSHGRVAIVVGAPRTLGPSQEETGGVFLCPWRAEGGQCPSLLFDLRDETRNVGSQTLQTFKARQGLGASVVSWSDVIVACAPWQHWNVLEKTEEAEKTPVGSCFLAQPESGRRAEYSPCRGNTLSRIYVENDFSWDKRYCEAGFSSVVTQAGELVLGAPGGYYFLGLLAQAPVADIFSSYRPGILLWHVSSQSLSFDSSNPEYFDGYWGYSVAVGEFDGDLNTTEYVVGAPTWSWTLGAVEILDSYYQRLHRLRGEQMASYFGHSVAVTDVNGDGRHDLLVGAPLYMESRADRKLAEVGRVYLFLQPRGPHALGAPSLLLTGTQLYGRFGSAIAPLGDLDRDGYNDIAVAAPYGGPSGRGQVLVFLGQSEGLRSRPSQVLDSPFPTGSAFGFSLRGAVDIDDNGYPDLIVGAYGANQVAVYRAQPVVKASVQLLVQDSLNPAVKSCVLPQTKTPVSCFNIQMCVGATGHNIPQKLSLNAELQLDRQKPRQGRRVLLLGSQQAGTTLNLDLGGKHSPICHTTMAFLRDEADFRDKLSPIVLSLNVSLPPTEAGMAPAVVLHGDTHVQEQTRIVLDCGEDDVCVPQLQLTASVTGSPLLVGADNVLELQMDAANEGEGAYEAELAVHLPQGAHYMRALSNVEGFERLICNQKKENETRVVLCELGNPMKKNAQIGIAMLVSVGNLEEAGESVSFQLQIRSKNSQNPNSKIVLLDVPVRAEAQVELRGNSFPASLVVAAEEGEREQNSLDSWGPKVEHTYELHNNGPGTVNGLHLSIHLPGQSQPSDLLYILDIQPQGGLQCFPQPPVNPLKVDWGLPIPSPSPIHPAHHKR
Sequence (P08514 891-1039 limits assumed): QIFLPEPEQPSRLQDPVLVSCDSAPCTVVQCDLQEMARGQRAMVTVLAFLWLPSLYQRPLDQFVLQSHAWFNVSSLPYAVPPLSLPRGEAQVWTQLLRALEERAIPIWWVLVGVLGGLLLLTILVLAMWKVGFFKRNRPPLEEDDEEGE

| Ki [nM] | Compound |
| --- | --- |
| 780 | CC(=O)N[C@H]1CSSC[C@@H](C(N)=O)NC(=O)[C@H](CC(=O)O)NC(=O)CNC(=O)[C@H](CCCN=C(N)N)NC1=O |
| 5300 | CC(=O)N[C@H]1CSSC[C@@H](C(N)=O)NC(=O)[C@H](CO)NC(=O)[C@H](CC(=O)O)NC(=O)CNC(=O)[C@H](CCCN=C(N)N)NC1=O (Ac-CRGDSC-NH2; disulfide 1-6) |
| 720 | CC(=O)N[C@@H]1CSSC(C)(C)[C@H](C(N)=O)NC(=O)[C@H](CC(=O)O)NC(=O)CNC(=O)[C@@H](CCCNC(=N)N)NC1=O |
| 14500 | Ac-HHLGGAKQAGDV-OH |
| 58 | CC(=O)N[C@H]1CSSC(C)(C)[C@@H](C(N)=O)NC(=O)[C@H](CC(=O)O)NC(=O)CNC(=O)[C@H](CCCN=C(N)N)N(C)C1=O (Ac-C[NMeR]GD[Pen]-NH2; disulfide 1-5) |

Source: ChEMBL document CHEMBL1125778, “Development of a small RGD peptide fibrinogen receptor antagonist with potent antiaggregatory activity in vitro” (J Med Chem, 1991)
